Measured values: patent US9770451B2, “Composition including ATM inhibitor for reducing cellular senescence and use of the composition” (Samsung Electronics Co., Ltd., priority 2014, dated 2017)

Columns and labels:
[1] = system: senescent myoblasts (passage 11); assay: Morphological change by microscopy; format: cell-based, human; conditions: CP-466722 0.1 μM, 4 weeks
Method: A human myoblast cell line (Human Skeletal Muscle Myoblasts, Lonza CC-2580 LOT:0000387550) was inoculated into a plate (Greiner Bio One, 658950), which was coated with Collagen Type I, by using an SkBM™-2 Basal Medium (Lonza CC-3246) containing SkGM™-2 SingleQuots™ Kit (Lonza CC-3244), and then, cultured in a 5% CO2 incubator at a temperature of 37° C. When the cells were grown to about 85% confluency in the plate, the cells were subjected to subculture. The early subculture was carried out at a split ratio of 1:4, and the late subculture was carried out at a split ratio of 1:2. When the cell doubling time was 14 days, the cells were considered to be senescent […] (passages 10 to 12).
The senescent cells were inoculated into each well of a Collagen Type I-coated 6-well plate (Greiner Bio One, 657950) at a concentration of 2,000 cells/well, and then, the senescent myoblasts ([…]) in a CO2 incubator at a temperature of 37° C. for 4 weeks. The medium was replaced by a fresh medium containing KU-60019 (0.5 μM), once every 4 days. In addition, as a negative control group, the cells were cultured under the same conditions as described above, except that a medium used herein contained DMSO (0.05 (v/v) %).
In FIG. 16, the myoblasts were cultured in the presence of the ATM-kinase inhibitor KU-60019 (0.5 μM), and then, the cell shapes were photographed using a microscope. […]

[2] = system: senescent myoblasts (passage 11); assay: ROS measurement (MitoSOX Red); format: cell-based, human; conditions: CP-466722 0.1 μM
Method: (§1) ROS was measured according to the protocol of the manufacturer using a 0.2 μM MitoSOX™ Red reagent (Invitrogen, M36008). In detail, 2 μL of the reagent that was stored in a 1,000-fold concentration was added to a 2 ml medium sufficiently enough to cover the cultured cells that were attached to a coverslip. While being protected from light, the cells were further incubated at a temperature of 37° C. for 30 minutes. The cultured cells were irradiated with a wavelength of 520 nm by using a FACSCaliber (Beckton Dickinson), and then, measured with radiation emitted from a wavelength of 580 nm. The results were analyzed using Cell Quest 3.2 software (Beckton Dickinson).
as §1, with “by using an FACSCaliber (Beckton” for “by using a FACSCaliber (Beckton”

COc1cc2ncnc(-n3nc(-c4ccccn4)nc3N)c2cc1OC [CP-466722, 2-(6,7-dimethoxyquinazolin-4-yl)-5-(pyridin-2-yl)-2H-1,2,4-triazol-3-amine]
cell number and morphology vs DMSO control [1]: exist in a great number in the presence of CP-466722 and show a spindle form
amount of ROS (superoxide) vs control [2]: significantly decreased
